Patent US20210024542A1 (Torcept Therapeutics, Inc., priority 2018, published 2021)

Tests used:
CML-T1 = assay: OncoPanel cell proliferation assay, CML-T1; assay type: cell-based, human; details: CML-T1, scale 0-10
Protocol: (§1) Cells were grown in RPMI 1640, 10% FBS, 2 mM L-alanyl-L-glutamine, 1 mM Na pyruvate, or a special medium. Cells were seeded into 384-well plates and incubated in a humidified atmosphere of 5% CO2 at 37° C. Compounds were added the day following cell seeding. At the same time, a time zero untreated cell plate was generated. After a 3-day incubation period, cells were fixed and stained to allow fluorescence imaging of nuclei. Compounds (1 mM stock solutions) were serially diluted in half-log steps from the highest test concentration ([…]), and assayed over 10 concentrations with a maximum assay concentration of 0.1% DMSO. Automated fluorescence microscopy was carried out using a Molecular Devices ImageXpress Micro XL high-content imager, and images were collected with a 4× objective. 16-bit TIFF images were acquired and analyzed with MetaXpress 5.1.0.41 software.
(§2) Cell proliferation was measured by the fluorescence intensity of an incorporated nuclear dye. The output is referred to as the relative cell count, where the measured nuclear intensity is transformed to percent of control (POC) using the following formula: […]
(§3) Cellular response parameters were calculated using nonlinear regression to a sigmoidal single-site dose response model:
(§4) Where y is a response measured at concentration x, A and B are the lower and upper limits of the response, C is the concentration at the response midpoint (EC50), and D is the Hill Slope (Ref. 1).
(§5) EC50 is the test compound concentration at the curve inflection point or half the effective response (parameter C of the fitted curve solution). GI50 is the concentration needed to reduce the observed growth by half (midway between the curve maximum and the time zero value). “Cell Count Activity Area” is an estimate of the integrated area above the curve (Barretina, et al. The Cancer Cell Line Encyclopedia enables predictive modelling of anticancer drug sensitivity. Nature 483: 603-607). […] In rare instances, values <0 or >10 may be observed. […] Curve-fitting, calculations, and report generation was performed using a custom data reduction engine and MathIQ based software (AIM).

PC-3 = assay: OncoPanel cell proliferation assay, PC-3; details: for Cell Count Activity Area: PC-3, scale 0-10
Protocol: (§6) Cells were seeded into 384-well plates and incubated in a humidified atmosphere of 5% CO2 at 37° C. Compounds were added the day following cell seeding. At the same time, a time zero untreated cell plate was generated. After a 3-day incubation period, cells were fixed and stained to allow fluorescence imaging of nuclei. Compounds (1 mM stock solutions) were serially diluted in half-log steps from the highest test concentration (1 micromol), and assayed over 10 concentrations with a maximum assay concentration of 0.1% DMSO. Automated fluorescence microscopy was carried out using a Molecular Devices ImageXpress Micro XL high-content imager, and images were collected with a 4× objective. 16-bit TIFF images were acquired and analyzed with MetaXpress 5.1.0.41 software.

SK-UT-1 = assay: OncoPanel cell proliferation assay, SK-UT-1; details: for Cell Count Activity Area: SK-UT-1, scale 0-10
Protocol: as §6

786-O = assay: OncoPanel cell proliferation assay, 786-O; assay type: cell-based, human; details: 786-O, scale 0-10
Protocol: as §1, §2, §3, §4, §5

AGS = assay: OncoPanel cell proliferation assay, AGS; assay type: cell-based, human; details: scale 0-10
Protocol: as §1, §2, §3, §4, §5

CAMA-1 = assay: OncoPanel cell proliferation assay, CAMA-1; details: for Cell Count Activity Area: CAMA-1, scale 0-10
Protocol: as §6

Hs 852.T = assay: OncoPanel cell proliferation assay, Hs 852.T; assay type: cell-based, human; details: for Cell Count Activity Area: scale 0-10
Protocol: as §1, §2, §3, §4, §5

T24 = assay: OncoPanel cell proliferation assay, T24; assay type: cell-based, human; details: for Cell Count Activity Area: T24, scale 0-10
Protocol: as §1, §2, §3, §4, §5

A101D = assay: OncoPanel cell proliferation assay, A101D; assay type: cell-based, human; details: for Cell Count Activity Area: scale 0-10
Protocol: as §1, §2, §3, §4, §5

Hs 729 = assay: OncoPanel cell proliferation assay, Hs 729; assay type: cell-based, human; details: for Cell Count Activity Area: Hs 729, scale 0-10
Protocol: as §1, §2, §3, §4, §5

SW684 = assay: OncoPanel cell proliferation assay, SW684; assay type: cell-based, human
Protocol: as §1, with “Cells” for “Cells were grown in RPMI 1640, 10% FBS, 2 mM L-alanyl-L-glutamine, 1 mM Na pyruvate, or a special medium. Cells”
as §2, §3, §4
GI50 is the concentration needed to reduce the observed growth by half (midway between the curve maximum and the time zero value). […] In rare instances, values <0 or >10 may be observed. […] Curve-fitting, calculations, and report generation was performed using a custom data reduction engine and MathIQ based software (AIM).

SCaBER = assay: OncoPanel cell proliferation assay, SCaBER; assay type: cell-based, human; details: scale 0-10
Protocol: as §1, §2, §3, §4, §5

[1] = Homo sapiens, 72 h, 3-day incubation, read-out: Cell Count IC50

CO[C@H]1C[C@@H]2CC[C@@H](C)[C@@](O)(O2)C(=O)C(=O)N2CCCC[C@H]2C(=O)O[C@H]([C@H](C)C[C@@H]2CC[C@@H](O)[C@H](OC)C2)CC(=O)[C@H](C)/C=C(\C)[C@@H](O)[C@@H](OC)C(=O)[C@H](C)C[C@H](C)/C=C/C=C/C=C/1C [Rapamycin, reference compound]
Cell Count Activity Area (CML-T1): 4.56 | EC50 (PC-3; Homo sapiens, PC-3, 72 h, read-out: Cell Count EC50): 0.23 nM | IC50 (PC-3; Homo sapiens, PC-3, 72 h, read-out: Cell Count IC50): > 1000 nM | Cell Count Activity Area (PC-3): 3.57 | EC50 (SK-UT-1; Homo sapiens, SK-UT-1, 72 h, read-out: Cell Count EC50): 0.2 nM | GI50 (SK-UT-1; Homo sapiens, SK-UT-1, 72 h, read-out: Cell Count GI50): > 1000 nM | IC50 (SK-UT-1; Homo sapiens, SK-UT-1, 72 h, read-out: Cell Count IC50): > 1000 nM | Cell Count Activity Area (SK-UT-1): 3.23 | Cell Count Activity Area (786-O): 4.17 | Cell Count Activity Area (AGS): 5.67 | Cell Count Activity Area (CAMA-1): 4.07 | EC50 (Hs 852.T; Homo sapiens, 72 h, 3-day incubation, read-out: Cell Count EC50): > 1000 nM | GI50 (Hs 852.T; Homo sapiens, 72 h, 3-day incubation, read-out: Cell Count GI50): > 1000 nM | IC50 (Hs 852.T; [1]): > 1000 nM | Cell Count Activity Area (Hs 852.T): 1.43 | IC50 (T24; Homo sapiens, T-24, 72 h, T24, 3-day incubation, read-out: Cell Count IC50): 2.1 nM | Cell Count Activity Area (T24): 4.39 | IC50 (A101D; [1]): > 1000 nM | Cell Count Activity Area (A101D): 2.92 | EC50 (Hs 729; Homo sapiens, 72 h, Hs 729, 3-day incubation, read-out: Cell Count EC50): > 1000 nM | GI50 (Hs 729; Homo sapiens, 72 h, Hs 729, 3-day incubation, read-out: Cell Count GI50): > 1000 nM | IC50 (Hs 729; Homo sapiens, 72 h, Hs 729, 3-day incubation, read-out: Cell Count IC50): > 1000 nM | Cell Count Activity Area (Hs 729): 0.55 | IC50 (SW684; Homo sapiens, 72 h, SW684, 3-day incubation, read-out: Cell Count IC50): > 1000 nM | Cell Count Activity Area (SW684; SW684, scale 0-10): 2.81 | Cell Count Activity Area (SCaBER): 5.25

CN[C@@H]1C[C@H]2O[C@@](C)([C@@H]1OC)n1c3ccccc3c3c4c(c5c6ccccc6n2c5c31)C(=O)NC4 [Staurosporine, reference compound]
Cell Count Activity Area (CML-T1): 4.13 | Cell Count Activity Area (PC-3): 4.67 | Cell Count Activity Area (SK-UT-1): 3.46 | Cell Count Activity Area (786-O): 4.87 | Cell Count Activity Area (AGS): 6.19 | Cell Count Activity Area (CAMA-1): 2.99 | GI50 (CAMA-1; Homo sapiens, CAMA-1, 72 h, read-out: Cell Count GI50): 12 nM | IC50 (CAMA-1; Homo sapiens, CAMA-1, 72 h, read-out: Cell Count IC50): 99 nM | Cell Count Activity Area (Hs 852.T): 3.16 | Cell Count Activity Area (T24): 5.96 | Cell Count Activity Area (A101D): 4.56 | Cell Count Activity Area (Hs 729): 4.06 | GI50 (SW684; Homo sapiens, 72 h, SW684, 3-day incubation, read-out: Cell Count GI50): 0.95 nM | Cell Count Activity Area (SCaBER): 6.03
